# Reference: patent US20250051277A1, “DELIVERY OF THERAPEUTIC ALKALOID COMPOUNDS” (Sensorium Therapeutics, Inc., priority 2021, published 2025)
# Like-named read-outs stand apart in the source and are kept apart here.
# What was measured:
# [1] = 10 μM
# [2] = 10 μM; remark: listed apart in the source
Structure (SMILES),"Prodrug (%) remaining, Rat Plasma ([1]; 0 h)","Prodrug (%) remaining, Rat Plasma ([1]; 10 min)","Prodrug (%) remaining, Rat Plasma ([1]; 0.5 h)","Prodrug (%) remaining, Rat Plasma ([1]; 1 h)","Prodrug (%) remaining, Rat Plasma ([1]; 2 h)","Prodrug (%) remaining, Rat Plasma ([1]; 4 h)","Prodrug (%) remaining, Human Plasma ([2]; 0 h)","Prodrug (%) remaining, Human Plasma ([2]; 10 min)","Prodrug (%) remaining, Human Plasma ([2]; 0.5 h)","Prodrug (%) remaining, Human Plasma ([2]; 1 h)","Prodrug (%) remaining, Human Plasma ([2]; 2 h)","Prodrug (%) remaining, Human Plasma ([2]; 4 h)"
"CCCCC(CC)C(=O)OC1=C[C@@H]2N(C)CC[C@]2(c2ccc(OC)c(OC)c2)CC1 (stereo partly drawn) [Compound 401, (3aS,7aS)-3a-(3,4-dimethoxyphenyl)-1-methyl-2,3,3a,4,5,7a-hexahydro-1H-indol-6-yl2-ethylhexanoate]",100.0%,84.5%,55.8%,33.8%,16.3%,3.3%,100.0%,95.9%,>99%,96.6%,94.4%,93.4%
"CCCC(C)C(=O)OC1=C[C@@H]2N(C)CC[C@]2(c2ccc(OC)c(OC)c2)CC1 (stereo partly drawn) [Compound 402, (3aS,7aS)-3a-(3,4-dimethoxyphenyl)-1-methyl-2,3,3a,4,5,7a-hexahydro-1H-indol-6-yl2-methylpentanoate]",100.0%,3.5%,0.1%,0.0%,0.0%,0.0%,100.0%,11.3%,2.9%,2.1%,1.6%,1.1%
"COCCCCC(=O)OC1=C[C@@H]2N(C)CC[C@]2(c2ccc(OC)c(OC)c2)CC1 [Compound 404, (3aS,7aS)-3a-(3,4-dimethoxyphenyl)-1-methyl-2,3,3a,4,5,7a-hexahydro-1H-indol-6-yl5-methoxypentanoate]",100.0%,0.3%,0.3%,0.3%,0.3%,0.2%,100.0%,22.9%,11.5%,7.6%,3.8%,1.6%
"COCCOCCC(=O)OC1=C[C@@H]2N(C)CC[C@]2(c2ccc(OC)c(OC)c2)CC1 [Compound 405, (3aS,7aS)-3a-(3,4-dimethoxyphenyl)-1-methyl-2,3,3a,4,5,7a-hexahydro-1H-indol-6-yl3-(2-methoxyethoxy)propanoate]",100.0%,0.1%,0.0%,0.1%,0.0%,0.0%,100.0%,>99%,95.0%,87.0%,65.7%,46.7%
"CCC(C)C(=O)OC1=C[C@@H]2N(C)CC[C@]2(c2ccc(OC)c(OC)c2)CC1 (stereo partly drawn) [Compound 425, (3aS,7aS)-3a-(3,4-dimethoxyphenyl)-1-methyl-2,3,3a,4,5,7a-hexahydro-1H-indol-6-yl2-methylbutanoate]",100.0%,4.4%,0.1%,0.0%,0.0%,0.0%,100.0%,6.5%,4.8%,4.0%,3.0%,1.9%
